We go through two compounds from PMC3092815 (Proteins, 2011).

One may read the Km as the concentration of substrate that gives half-maximal velocity. Broadly, the Ki is the dissociation constant of the complex between target and ligand, obtained from inhibition or displacement. The low end stands for a stronger hold on the target, the high end for a looser hold on the target.

The target in test [1] is T1, C. perfringens PepcA (archaeal-type phosphoenolpyruvate carboxylase) (Clostridium perfringens, UniProt Q8XLE8).
The target in test [2] is T1, C. perfringens PepcA (archaeal-type phosphoenolpyruvate carboxylase). The test can be described thus: biochemical.

In the case of Mg^++.PEP, the Km in test [1] stood at 60 µM.
For the compound `N[C@@H](CC(=O)O)C(=O)O` [aspartate], in test [2], the Ki came to 200 µM.
